Laboratory results published in PubChem BioAssay AID1963968 (Molecular Pharmacology Branch, DTP, NCI, 2024).

Test system: 945468-187-T-J3-PDC spheroids with HUVEC/MSC, viability
Experiment: Anticancer human tumor 945468-187-T-J3-PDC patient-derived rectal carcinoma cell line growth inhibition [PI3K]
Conditions: for IC50: curve of first compound; for viability, T/C: stronger effect = lower value
Summary of the method: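 Tumor cells were combined with HUVEC and MSCs into spheroids, then dosed with PI3K-inhibitor combinations over half-log ranges capped near clinical Cmax or 10 microM.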

[1] = second compound 0.0316 µM, first compound 0.0316 µM
[2] = second compound 0.0316 µM, first compound 0.1 µM
[3] = second compound 0.0316 µM, first compound 0.316 µM
[4] = second compound 0.0316 µM, first compound 1 µM
[5] = second compound 0.0316 µM, first compound 3.16 µM
[6] = second compound 0.0316 µM, first compound 10 µM
[7] = second compound 0.1 µM, first compound 0.0316 µM
[8] = second compound 0.1 µM, first compound 0.1 µM
[9] = second compound 0.1 µM, first compound 0.316 µM
[10] = second compound 0.1 µM, first compound 1 µM
[11] = second compound 0.1 µM, first compound 3.16 µM
[12] = second compound 0.1 µM, first compound 10 µM
[13] = second compound 0.316 µM, first compound 0.0316 µM
[14] = second compound 0.316 µM, first compound 0.1 µM
[15] = second compound 0.316 µM, first compound 0.316 µM
[16] = second compound 0.316 µM, first compound 1 µM
[17] = second compound 0.316 µM, first compound 3.16 µM
[18] = second compound 0.316 µM, first compound 10 µM
[19] = second compound 1 µM, first compound 0.0316 µM
[20] = second compound 1 µM, first compound 0.1 µM
[21] = second compound 1 µM, first compound 0.316 µM
[22] = second compound 1 µM, first compound 1 µM
[23] = second compound 1 µM, first compound 3.16 µM
[24] = second compound 1 µM, first compound 10 µM
[25] = second compound 3.16 µM, first compound 0.0316 µM
[26] = second compound 3.16 µM, first compound 0.1 µM
[27] = second compound 3.16 µM, first compound 0.316 µM
[28] = second compound 3.16 µM, first compound 1 µM
[29] = second compound 3.16 µM, first compound 3.16 µM
[30] = second compound 3.16 µM, first compound 10 µM
[31] = second compound 10 µM, first compound 0.0316 µM
[32] = second compound 10 µM, first compound 0.1 µM
[33] = second compound 10 µM, first compound 0.316 µM
[34] = second compound 10 µM, first compound 1 µM
[35] = second compound 10 µM, first compound 3.16 µM
[36] = second compound 10 µM, first compound 10 µM
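Note: spheroids exposed to agents for 7 days before viability read.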
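Throughout, for viability, T/C: 100% = DMSO vehicle control viability.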

C=CC(=O)N1CCN(c2nc(=O)n(-c3c(C)ccnc3C(C)C)c3nc(-c4c(O)cccc4F)c(F)cc23)C(C)C1 (stereo not given) + Cc1nc(NC(=O)N2CCCC2C(N)=O)sc1-c1ccnc(C(C)(C)C(F)(F)F)c1
IC50 (second compound 0.0316 µM): > 10 µM | IC50 (second compound 0.1 µM): > 10 µM | IC50 (second compound 0.316 µM): > 10 µM | IC50 (second compound 1 µM): > 10 µM | IC50 (second compound 3.16 µM): > 10 µM | IC50 (second compound 10 µM): > 10 µM | viability, T/C [1]: 106% | viability, T/C [2]: 108% | viability, T/C [3]: 102% | viability, T/C [4]: 108% | viability, T/C [5]: 110% | viability, T/C [6]: 114% | viability, T/C [7]: 108% | viability, T/C [8]: 99.8% | viability, T/C [9]: 103% | viability, T/C [10]: 109% | viability, T/C [11]: 114% | viability, T/C [12]: 99% | viability, T/C [13]: 103% | viability, T/C [14]: 102% | viability, T/C [15]: 100% | viability, T/C [16]: 115% | viability, T/C [17]: 105% | viability, T/C [18]: 98.6% | viability, T/C [19]: 126% | viability, T/C [20]: 118% | viability, T/C [21]: 102% | viability, T/C [22]: 123% | viability, T/C [23]: 122% | viability, T/C [24]: 107% | viability, T/C [25]: 110% | viability, T/C [26]: 109% | viability, T/C [27]: 112% | viability, T/C [28]: 108% | viability, T/C [29]: 113% | viability, T/C [30]: 115% | viability, T/C [31]: 71.1% | viability, T/C [32]: 64.5% | viability, T/C [33]: 58.3% | viability, T/C [34]: 67.5% | viability, T/C [35]: 90.8% | viability, T/C [36]: 79.1%

CC(C)NCC(C(=O)N1CCN(c2ncnc3c2C(C)CC3O)CC1)c1ccc(Cl)cc1 (stereo not given) + Cc1nc(NC(=O)N2CCCC2C(N)=O)sc1-c1ccnc(C(C)(C)C(F)(F)F)c1
IC50 (second compound 0.0316 µM): > 10 µM | IC50 (second compound 0.1 µM): > 10 µM | IC50 (second compound 0.316 µM): 5.36 µM | IC50 (second compound 1 µM): 2.9 µM | IC50 (second compound 3.16 µM): 1.71 µM | IC50 (second compound 10 µM): 0.303 µM | viability, T/C [1]: 109% | viability, T/C [2]: 116% | viability, T/C [3]: 84.4% | viability, T/C [4]: 94.1% | viability, T/C [5]: 76.9% | viability, T/C [6]: 55% | viability, T/C [7]: 103% | viability, T/C [8]: 101% | viability, T/C [9]: 93.3% | viability, T/C [10]: 91.8% | viability, T/C [11]: 80.6% | viability, T/C [12]: 54.6% | viability, T/C [13]: 114% | viability, T/C [14]: 104% | viability, T/C [15]: 99.4% | viability, T/C [16]: 88.3% | viability, T/C [17]: 60% | viability, T/C [18]: 36.4% | viability, T/C [19]: 99.6% | viability, T/C [20]: 104% | viability, T/C [21]: 91.9% | viability, T/C [22]: 80.7% | viability, T/C [23]: 46.5% | viability, T/C [24]: 32.6% | viability, T/C [25]: 92.6% | viability, T/C [26]: 87.8% | viability, T/C [27]: 82.1% | viability, T/C [28]: 59.3% | viability, T/C [29]: 38.9% | viability, T/C [30]: 27.1% | viability, T/C [31]: 68.9% | viability, T/C [32]: 54.6% | viability, T/C [33]: 51% | viability, T/C [34]: 45% | viability, T/C [35]: 36.9% | viability, T/C [36]: 33.2%

CCN1CCN(Cc2ccc(Nc3ncc(F)c(-c4cc(F)c5nc(C)n(C(C)C)c5c4)n3)nc2)CC1 + Cc1nc(NC(=O)N2CCCC2C(N)=O)sc1-c1ccnc(C(C)(C)C(F)(F)F)c1
IC50 (second compound 0.0316 µM): > 1 µM | IC50 (second compound 0.1 µM): > 1 µM | IC50 (second compound 0.316 µM): > 1 µM | IC50 (second compound 1 µM): 0.735 µM | IC50 (second compound 3.16 µM): 0.299 µM | IC50 (second compound 10 µM): 0.0355 µM | viability, T/C (second compound 0.0316 µM, first compound 0.00316 µM): 83.5% | viability, T/C (second compound 0.0316 µM, first compound 0.01 µM): 103% | viability, T/C [1]: 95.6% | viability, T/C [2]: 105% | viability, T/C [3]: 115% | viability, T/C [4]: 105% | viability, T/C (second compound 0.1 µM, first compound 0.00316 µM): 87.8% | viability, T/C (second compound 0.1 µM, first compound 0.01 µM): 97.9% | viability, T/C [7]: 107% | viability, T/C [8]: 103% | viability, T/C [9]: 121% | viability, T/C [10]: 102% | viability, T/C (second compound 0.316 µM, first compound 0.00316 µM): 97% | viability, T/C (second compound 0.316 µM, first compound 0.01 µM): 96.2% | viability, T/C [13]: 95.6% | viability, T/C [14]: 107% | viability, T/C [15]: 113% | viability, T/C [16]: 53.5% | viability, T/C (second compound 1 µM, first compound 0.00316 µM): 102% | viability, T/C (second compound 1 µM, first compound 0.01 µM): 103% | viability, T/C [19]: 101% | viability, T/C [20]: 106% | viability, T/C [21]: 90.3% | viability, T/C [22]: 35.2% | viability, T/C (second compound 3.16 µM, first compound 0.00316 µM): 107% | viability, T/C (second compound 3.16 µM, first compound 0.01 µM): 97.5% | viability, T/C [25]: 88.9% | viability, T/C [26]: 99.3% | viability, T/C [27]: 47.5% | viability, T/C [28]: 26.9% | viability, T/C (second compound 10 µM, first compound 0.00316 µM): 65.6% | viability, T/C (second compound 10 µM, first compound 0.01 µM): 59.4% | viability, T/C [31]: 45.6% | viability, T/C [32]: 45.8% | viability, T/C [33]: 35.2% | viability, T/C [34]: 23.7%

Cn1ncc(Cl)c1-c1cc(C(=O)NC(CN)Cc2cccc(F)c2)sc1Cl (stereo not given) + Cc1nc(NC(=O)N2CCCC2C(N)=O)sc1-c1ccnc(C(C)(C)C(F)(F)F)c1
IC50 (second compound 0.0316 µM): 4.06 µM | IC50 (second compound 0.1 µM): 2.93 µM | IC50 (second compound 0.316 µM): 1.95 µM | IC50 (second compound 1 µM): 1.43 µM | IC50 (second compound 3.16 µM): 0.605 µM | IC50 (second compound 10 µM): 0.131 µM | viability, T/C [1]: 86.1% | viability, T/C [2]: 106% | viability, T/C [3]: 96.3% | viability, T/C [4]: 83% | viability, T/C [5]: 54.6% | viability, T/C [6]: 35.1% | viability, T/C [7]: 110% | viability, T/C [8]: 97.2% | viability, T/C [9]: 93.5% | viability, T/C [10]: 60.1% | viability, T/C [11]: 53.7% | viability, T/C [12]: 34.1% | viability, T/C [13]: 114% | viability, T/C [14]: 119% | viability, T/C [15]: 94% | viability, T/C [16]: 61.8% | viability, T/C [17]: 44.6% | viability, T/C [18]: 29.7% | viability, T/C [19]: 109% | viability, T/C [20]: 108% | viability, T/C [21]: 82.4% | viability, T/C [22]: 54% | viability, T/C [23]: 39.8% | viability, T/C [24]: 21.1% | viability, T/C [25]: 107% | viability, T/C [26]: 84% | viability, T/C [27]: 53.2% | viability, T/C [28]: 45% | viability, T/C [29]: 32.7% | viability, T/C [30]: 16.4% | viability, T/C [31]: 60.6% | viability, T/C [32]: 52.2% | viability, T/C [33]: 40% | viability, T/C [34]: 31.9% | viability, T/C [35]: 28.4% | viability, T/C [36]: 4.34%

Cn1nccc1Nc1nccc(-c2ccn(C(CO)c3ccc(Cl)c(F)c3)c(=O)c2)n1 (stereo not given) + Cc1nc(NC(=O)N2CCCC2C(N)=O)sc1-c1ccnc(C(C)(C)C(F)(F)F)c1
IC50 (second compound 0.0316 µM): > 10 µM | IC50 (second compound 0.1 µM): > 10 µM | IC50 (second compound 0.316 µM): > 10 µM | IC50 (second compound 1 µM): > 10 µM | IC50 (second compound 3.16 µM): > 10 µM | IC50 (second compound 10 µM): > 10 µM | viability, T/C [1]: 89.1% | viability, T/C [2]: 111% | viability, T/C [3]: 106% | viability, T/C [4]: 119% | viability, T/C [5]: 135% | viability, T/C [6]: 133% | viability, T/C [7]: 107% | viability, T/C [8]: 109% | viability, T/C [9]: 110% | viability, T/C [10]: 116% | viability, T/C [11]: 125% | viability, T/C [12]: 118% | viability, T/C [13]: 106% | viability, T/C [14]: 114% | viability, T/C [15]: 104% | viability, T/C [16]: 117% | viability, T/C [17]: 129% | viability, T/C [18]: 138% | viability, T/C [19]: 113% | viability, T/C [20]: 112% | viability, T/C [21]: 111% | viability, T/C [22]: 119% | viability, T/C [23]: 144% | viability, T/C [24]: 136% | viability, T/C [25]: 104% | viability, T/C [26]: 101% | viability, T/C [27]: 96.6% | viability, T/C [28]: 121% | viability, T/C [29]: 91.2% | viability, T/C [30]: 90.1% | viability, T/C [31]: 59.8% | viability, T/C [32]: 61.7% | viability, T/C [33]: 61% | viability, T/C [34]: 54.8% | viability, T/C [35]: 52.9% | viability, T/C [36]: 52.9%
